According to publication PMC9506480, “Synthesis and Evaluation of Antiproliferative Activity, Topoisomerase IIα Inhibition, DNA Binding and Non-Clinical Toxicity of New Acridine–Thiosemicarbazone Derivatives” (Pharmaceuticals, 2022):

Assays:
[1] = system: HCT116 (human colon carcinoma); assay: Alamar blue cytotoxicity assay, HCT116; type: cell-based; conditions: HCT-116, 72 h incubation
Experimental: (§1) The in vitro cytotoxic activity of the compounds (Table 1) was evaluated against cancer cell lines HCT116 (human colon carcinoma), HepG2 (human hepatocellular carcinoma), B16F10 (murine melanoma carcinoma) and non-cancerous cell line MRC-5 (human lung fibroblast) using the Alamar blue assay after 72 h of incubation; doxorubicin (DOX) was used as a positive control. The unsubstituted derivatives on the acridine cores were encoded as CL, and the disubstituted derivatives as DL.
(§2) The human cancer cell lines HCT116 (colon carcinoma) and HepG2 (hepatocellular carcinoma), the mouse cancer cell line B16-F10 (melanoma), and the non-cancerous human cell line MRC-5 (lung fibroblast) were obtained from the American Type Culture Collection (ATCC, Manassas, VA, USA) and cultured according to the ATCC animal cell culture guide. All cell lines tested negative for mycoplasma using a mycoplasma stain kit.
(§3) Cell viability was measured using the Alamar blue assay, as previously described. Cells were seeded in 96-well plates for all experiments. The compounds were dissolved in dimethyl sulfoxide (DMSO, Sigma-Aldrich) and added to each well in eight serial concentrations ranging from 0.19 to 25 μg/mL. As a positive control, doxorubicin was used. After 72 h of treatment, 20 μL of resazurin (0.312 mg/mL) was added to each well. A SpectraMax 190 Micro-plate Reader was used to measure absorbances at 570 and 595 nm (Molecular Devices, Sunnyvale, CA, USA). Nonlinear regression with 95% confidence intervals (CI 95%) was used to calculate the inhibitory concentration of 50% (IC50) using GraphPad Prism software (Intuitive Software for Science; San Diego, CA, USA).

[2] = system: HepG2 (human hepatocellular carcinoma); assay: Alamar blue cytotoxicity assay, HepG2; type: cell-based; conditions: 72 h incubation
Experimental: as §1, §2, §3

[3] = system: MRC-5 (human lung fibroblast); assay: Alamar blue cytotoxicity assay, non-cancerous MRC-5; type: cell-based; conditions: MRC5, 72 h incubation, non-cancerous cell
Experimental: as §1, §2, §3

[4] = system: B16-F10 (murine melanoma); assay: Alamar blue cytotoxicity assay, B16-F10; type: cell-based; conditions: Mus musculus, 72 h incubation
Experimental: as §1, §2, §3

[5] = biological target: T1, recombinant human topoisomerase IIα (p170) (Homo sapiens, UniProt P11388); assay: Human topoisomerase IIα inhibition assay (pUC19 plasmid relaxation); type: biochemical
T1 construct: purchased Sigma-Aldrich
T1 sequence (P11388 whole entry): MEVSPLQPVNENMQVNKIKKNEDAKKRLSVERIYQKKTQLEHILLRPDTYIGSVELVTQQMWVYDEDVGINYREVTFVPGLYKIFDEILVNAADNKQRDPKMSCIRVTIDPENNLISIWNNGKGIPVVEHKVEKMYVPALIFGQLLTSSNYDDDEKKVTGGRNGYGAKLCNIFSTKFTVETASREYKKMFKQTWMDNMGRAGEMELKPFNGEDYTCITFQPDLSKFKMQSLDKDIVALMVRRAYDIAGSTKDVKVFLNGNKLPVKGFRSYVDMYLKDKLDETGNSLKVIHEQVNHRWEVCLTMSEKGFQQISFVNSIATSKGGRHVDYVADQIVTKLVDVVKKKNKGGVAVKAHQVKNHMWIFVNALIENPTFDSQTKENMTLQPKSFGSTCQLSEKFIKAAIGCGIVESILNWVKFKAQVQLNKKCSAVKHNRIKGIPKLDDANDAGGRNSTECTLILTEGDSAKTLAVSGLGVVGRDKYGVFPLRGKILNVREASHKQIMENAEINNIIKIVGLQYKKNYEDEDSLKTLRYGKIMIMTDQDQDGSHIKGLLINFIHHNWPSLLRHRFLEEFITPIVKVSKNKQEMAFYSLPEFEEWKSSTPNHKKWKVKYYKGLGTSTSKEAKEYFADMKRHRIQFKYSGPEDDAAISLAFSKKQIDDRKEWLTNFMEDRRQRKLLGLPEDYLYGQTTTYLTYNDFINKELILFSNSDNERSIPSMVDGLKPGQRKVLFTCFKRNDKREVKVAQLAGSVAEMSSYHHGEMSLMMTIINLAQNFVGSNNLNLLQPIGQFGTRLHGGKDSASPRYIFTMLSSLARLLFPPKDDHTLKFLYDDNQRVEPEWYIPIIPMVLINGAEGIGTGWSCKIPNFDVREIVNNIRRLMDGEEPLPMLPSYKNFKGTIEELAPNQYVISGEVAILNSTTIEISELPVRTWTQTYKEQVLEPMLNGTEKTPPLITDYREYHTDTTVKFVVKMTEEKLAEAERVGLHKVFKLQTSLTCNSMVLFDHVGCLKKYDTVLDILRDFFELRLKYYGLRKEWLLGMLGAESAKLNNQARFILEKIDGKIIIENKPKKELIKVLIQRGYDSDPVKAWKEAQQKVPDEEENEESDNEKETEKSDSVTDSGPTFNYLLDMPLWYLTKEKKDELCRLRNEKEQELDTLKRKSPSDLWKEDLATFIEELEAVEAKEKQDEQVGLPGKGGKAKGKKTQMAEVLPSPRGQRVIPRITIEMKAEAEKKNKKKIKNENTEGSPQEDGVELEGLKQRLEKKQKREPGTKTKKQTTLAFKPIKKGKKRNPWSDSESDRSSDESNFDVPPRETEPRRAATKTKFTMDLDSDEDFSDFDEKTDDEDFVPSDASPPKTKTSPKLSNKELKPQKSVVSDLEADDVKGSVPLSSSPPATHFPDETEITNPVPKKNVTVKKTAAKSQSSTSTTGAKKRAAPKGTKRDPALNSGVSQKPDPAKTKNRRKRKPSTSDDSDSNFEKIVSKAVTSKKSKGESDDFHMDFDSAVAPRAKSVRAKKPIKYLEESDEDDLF
Source text: Several studies have shown the ability of acridines to inhibit topoisomerases, being considered the main mechanism responsible for the antiproliferative activities of this scaffold. The possibility of the new acridine derivatives to inhibit Topo IIα in its biological function of DNA double-strand relaxation was investigated in this work. This enzymatic inhibition can be accompanied by the presence of a supercoiled or relaxed DNA band, performed with the pUC19 plasmid, as shown in Figure 2. In this study, mAMSA was used as a positive inhibition control.
For testing the ability of Topo IIα inhibition, the compounds were evaluated in the DNA plasmid relaxation assay. This test consists of evaluating the Topo IIα enzyme activity in the absence and presence of the compound, followed by electrophoresis analysis, as previously described by Almeida et al. (2016). Briefly, 100 ng pUC19 DNA plasmid (Sigma-Aldrich) and 4.0 units of recombinant human (p170) topoisomerase II (Sigma-Aldrich) in relaxation buffer without or with tested compounds were incubated for 30 min at 37 °C. The tested concentrations were […], and amsacrine (mAMSA) was used as a positive control. Reactions were terminated with 1% SDS and digested with proteinase K. Then, the reaction products were analyzed by electrophoresis gel stained with ethidium bromide and photographed under UV light. Quantitative evaluation (% of enzyme inhibition by compounds about the positive control mAMSA) of the gel bands corresponding to supercoiled DNA was performed by densitometry using image-processing software (Scion Image, version Beta 4.0.2.) according to Gouveia et al. (2018).
Figure 2 Effects of mAMSA and its acridine derivatives on topoisomerase IIα activity. Effects of derivatives and positive control on the inhibition of human topoisomerase IIα. Native supercoiled pUC19 was incubated for 30 min at 37 °C with […] of human Topo IIα in the absence (lane 2) or presence of ligands at a concentration 100 μM. Inhibition of Topo IIα-induced DNA relaxation by mAMSA (lane 3) was used as a positive control. DNA samples were run on an agarose gel followed by ethidium bromide staining.

For `S=C(N/N=C/c1ccccc1)Nc1c2ccccc2nc2ccccc12` [CL-01, (E)-N-(acridin-9-yl)-2-benzylidenehydrazine-1-carbothioamide], which IC50 [1] is on record?
The IC50 was greater than 70 µM.

What about the IC50 [2] of the same compound?
Its IC50 is greater than 70 µM.

And the IC50 [3]?
Its IC50 is greater than 70 µM.

Which IC50 [1] does the source give for `S=C(N/N=C/c1ccc(Cl)cc1)Nc1c2ccccc2nc2ccccc12` [CL-02, (E)-N-(acridin-9-yl)-2-(4-chlorobenzylidene)hydrazine-1-carbothioamide] here?
Its IC50 is greater than 70 µM.

And the IC50 [2]?
Its IC50 is greater than 70 µM.

What about the IC50 [3] of the same compound?
Its IC50 is greater than 70 µM.

Which results are given for `COc1ccc(/C=N/NC(=S)Nc2c3ccccc3nc3ccccc23)cc1` [CL-03, (E)-N-(acridin-9-yl)-2-(4-methoxybenzylidene)hydrazine-1-carbothioamide]?
IC50 [1]: > 70 µM; IC50 [2]: > 70 µM; IC50 [4]: > 70 µM; IC50 [3]: > 70 µM

With `S=C(N/N=C/c1ccc(Cl)cc1Cl)Nc1c2ccccc2nc2ccccc12` [CL-04, (E)-N-(acridin-9-yl)-2-(2,4-dichlorobenzylidene)hydrazine-1-carbothioamide] as the compound, how does the IC50 [1] read?
Its IC50 is greater than 60 µM.

What about the IC50 [2] of the same compound?
Its IC50 is greater than 60 µM.

What about the IC50 [3] of the same compound?
Its IC50 is greater than 60 µM.

Which results are given for `O=[N+]([O-])c1ccc(/C=N/NC(=S)Nc2c3ccccc3nc3ccccc23)cc1` [CL-05, (E)-N-(acridin-9-yl)-2-(4-nitrobenzylidene)hydrazine-1-carbothioamide]?
IC50 [1]: > 60 µM; IC50 [2]: > 60 µM; IC50 [4]: 22.7 µM; IC50 [3]: 26.8 µM

With `Cc1ccc(/C=N/NC(=S)Nc2c3ccccc3nc3ccccc23)cc1` [CL-06, (E)-N-(acridin-9-yl)-2-(4-methylbenzylidene)hydrazine-1-carbothioamide] as the compound, how does the IC50 [1] read?
The IC50 was 64.8 µM.

What about the IC50 [2] of the same compound?
The IC50 was 58.1 µM.

What about the IC50 [4] of the same compound?
The IC50 was 23.5 µM.

What about the IC50 [3] of the same compound?
The IC50 was 28 µM.

Which IC50 [1] does the source give for `Oc1cccc(/C=N/NC(=S)Nc2c3ccccc3nc3ccccc23)c1` [CL-08, (E)-N-(acridin-9-yl)-2-(3-hydroxybenzylidene)hydrazine-1-carbothioamide] here?
The IC50 was 39.2 µM.

And the IC50 [2]?
The IC50 was 49.4 µM.

And the IC50 [4]?
The IC50 was 21.3 µM.

And the IC50 [3]?
Its IC50 is 33.4 µM.

What does the source list for `CN(C)c1ccc(/C=N/NC(=S)Nc2c3ccccc3nc3ccccc23)cc1` [CL-09, (E)-N-(acridin-9-yl)-2-(4-(dimethylamino)benzylidene)hydrazine-1-carbothioamide]?
IC50 [1]: > 60 µM; IC50 [2]: > 60 µM; IC50 [3]: > 60 µM

For `S=C(N/N=C/c1ccc(Br)cc1)Nc1c2ccccc2nc2ccccc12` [CL-10, (E)-N-(acridin-9-yl)-2-(4-bromobenzylidene)hydrazine-1-carbothioamide], which IC50 [1] is on record?
The IC50 was greater than 60 µM.

And the IC50 [2]?
The IC50 was greater than 60 µM.

What about the IC50 [3] of the same compound?
Its IC50 is greater than 60 µM.

Which IC50 [1] does the source give for `COc1ccc2nc3cc(Cl)ccc3c(NC(=S)N/N=C/c3ccc(Cl)cc3)c2c1` [DL-02, (E)-N-(6-chloro-2-methoxyacridin-9-yl)-2-(4-chlorobenzylidene)hydrazine-1-carbothioamide] here?
Its IC50 is greater than 60 µM.

And the IC50 [2]?
The IC50 was greater than 60 µM.

And the IC50 [4]?
The IC50 was 30.6 µM.

And the IC50 [3]?
The IC50 was greater than 60 µM.

And the melting point?
Its melting point is 144 to 145 °C.

For `COc1ccc(/C=N/NC(=S)Nc2c3ccc(Cl)cc3nc3ccc(OC)cc23)cc1` [DL-03, (E)-N-(6-chloro-2-methoxyacridin-9-yl)-2-(4-methoxybenzylidene)hydrazine-1-carbothioamide], which IC50 [1] is on record?
The IC50 was greater than 60 µM.

And the IC50 [2]?
Its IC50 is greater than 60 µM.

And the IC50 [4]?
Its IC50 is greater than 60 µM.

What about the IC50 [3] of the same compound?
Its IC50 is greater than 60 µM.

And the melting point?
Its melting point is 148 °C.

For `COc1ccc2nc3cc(Cl)ccc3c(NC(=S)N/N=C/c3ccc(Cl)cc3Cl)c2c1` [DL-04, (E)-N-(6-chloro-2-methoxyacridin-9-yl)-2-(2,4-dichlorobenzylidene)hydrazine-1-carbothioamide], which IC50 [1] is on record?
Its IC50 is greater than 60 µM.

And the IC50 [2]?
Its IC50 is greater than 60 µM.

What about the IC50 [4] of the same compound?
The IC50 was greater than 60 µM.

What about the IC50 [3] of the same compound?
Its IC50 is greater than 60 µM.

And the melting point?
The melting point was 192 to 193 °C.

Which results are given for `COc1ccc2nc3cc(Cl)ccc3c(NC(=S)N/N=C/c3ccc([N+](=O)[O-])cc3)c2c1` [DL-05, (E)-N-(6-chloro-2-methoxyacridin-9-yl)-2-(4-nitrobenzylidene)hydrazine-1-carbothioamide]?
IC50 [1]: > 60 µM; IC50 [2]: > 60 µM; IC50 [4]: > 60 µM; IC50 [3]: > 60 µM; melting point: 164 to 165 °C

Which IC50 [1] does the source give for `COc1ccc2nc3cc(Cl)ccc3c(NC(=S)N/N=C/c3ccc(C)cc3)c2c1` [DL-06, (E)-N-(6-chloro-2-methoxyacridin-9-yl)-2-(4-methylbenzylidene)hydrazine-1-carbothioamide] here?
Its IC50 is greater than 60 µM.

What about the IC50 [2] of the same compound?
Its IC50 is 33.4 µM.

What about the IC50 [4] of the same compound?
Its IC50 is 26.3 µM.

What about the IC50 [3] of the same compound?
Its IC50 is greater than 60 µM.

And the “inhibition of Topo IIα enzymatic activity (in words)” value ([5]; 100 µM)?
The value was “did not show inhibition capacity”.

And the melting point?
Its melting point is 157 to 158 °C.

For `COc1ccc2nc3cc(Cl)ccc3c(NC(=S)N/N=C/c3ccc(O)cc3)c2c1` [DL-07, (E)-N-(6-chloro-2-methoxyacridin-9-yl)-2-(4-hydroxybenzylidene)hydrazine-1-carbothioamide], which IC50 [1] is on record?
Its IC50 is 28.5 µM.

And the IC50 [2]?
Its IC50 is 24.8 µM.

What about the IC50 [4] of the same compound?
The IC50 was 21.1 µM.

What about the IC50 [3] of the same compound?
Its IC50 is 23.6 µM.

What about the “inhibition of Topo IIα enzymatic activity (in words)” value ([5]; 100 µM) of the same compound?
The value was “able to inhibit the enzymatic activity”.

And the “% of enzyme inhibition” value ([5]; 100 µM, densitometry, relative to positive control mAMSA, '-' = no inhibition)?
Its value is 74%.

And the inhibition at 100 µM ([5]; densitometry, relative to positive control mAMSA, '-' = no inhibition, read-out: % of enzyme inhibition)?
The inhibition at 100 µM was greater than 74%.

What about the melting point of the same compound?
Its melting point is 163 to 164 °C.

For `COc1ccc2nc3cc(Cl)ccc3c(NC(=S)N/N=C/c3ccc(N(C)C)cc3)c2c1` [DL-09, (E)-N-(6-chloro-2-methoxyacridin-9-yl)-2-(4-(dimethylamino)benzylidene)hydrazine-1-carbothioamide], which IC50 [1] is on record?
The IC50 was greater than 60 µM.

And the IC50 [2]?
The IC50 was greater than 60 µM.

And the IC50 [4]?
The IC50 was 46 µM.

What about the IC50 [3] of the same compound?
The IC50 was greater than 60 µM.

And the melting point?
The melting point was 149 to 150 °C.

With `COc1ccc2nc3cc(Cl)ccc3c(NC(=S)N/N=C/c3ccc(Br)cc3)c2c1` [DL-10, (E)-2-(4-bromobenzylidene)-N-(6-chloro-2-methoxyacridin-9-yl)hydrazine-1-carbothioamide] as the compound, how does the IC50 [1] read?
The IC50 was greater than 50 µM.

What about the IC50 [2] of the same compound?
The IC50 was 20.9 µM.

And the IC50 [4]?
The IC50 was 34.6 µM.

And the IC50 [3]?
Its IC50 is greater than 50 µM.

What about the melting point of the same compound?
Its melting point is 162 to 163 °C.

With `COc1cccc2c1C(=O)c1c(O)c3c(c(O)c1C2=O)C[C@@](O)(C(=O)CO)C[C@@H]3O[C@H]1C[C@H](N)[C@H](O)[C@H](C)O1` [DOX, doxorubicin, reference compound] as the compound, how does the IC50 [1] read?
The IC50 was 0.15 µM.

And the IC50 [2]?
Its IC50 is 0.15 µM.

What about the IC50 [4] of the same compound?
Its IC50 is 0.03 µM.

And the IC50 [3]?
The IC50 was 2.22 µM.
